# Source: the supplement of paper PMC10307832
# Assays:
# Experiment in all cases: relative viability (nuclei count vs DMSO), 5 days (fraction); higher = more cells survive
# ABC-1 = system: ABC-1
# Procedure, shortened: (§1)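 Relative viability was taken as the ratio of nuclei in treated wells to nuclei in vehicle wells. Lung cancer cell lines in 1536-well plates received compounds by pin tool one day after seeding, either one drug alone or a fixed anchor-drug dose plus five library-drug doses (not always all listed) in √10 steps. Nuclei were counted on 4× images after 5 days of treatment, and values are medians of duplicate plates.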
# COR-L23 = system: COR-L23
# Procedure, shortened: as §1
# EPLC-272H = system: EPLC-272H
# Procedure, shortened: as §1
# HARA = system: HARA
# Procedure, shortened: as §1
# HCC-15 = system: HCC-15
# Procedure, shortened: as §1
# HCC-44 = system: HCC-44
# Procedure, shortened: as §1
# HOP-62 = system: HOP-62
# Procedure, shortened: as §1
# LC-2-ad = system: LC-2-ad
# Procedure, shortened: as §1
# LU99A = system: LU99A
# Procedure, shortened: as §1
# NCI-H1355 = system: NCI-H1355
# Procedure, shortened: as §1
# NCI-H1651 = system: NCI-H1651
# Procedure, shortened: as §1
# NCI-H1915 = system: NCI-H1915
# Procedure, shortened: as §1
# NCI-H1993 = system: NCI-H1993
# Procedure, shortened: as §1
# NCI-H2023 = system: NCI-H2023
# Procedure, shortened: as §1
# NCI-H2085 = system: NCI-H2085
# Procedure, shortened: as §1
# NCI-H2126 = system: NCI-H2126
# Procedure, shortened: as §1
# NCI-H2347 = system: NCI-H2347
# Procedure, shortened: as §1
# NCI-H358 = system: NCI-H358
# Procedure, shortened: as §1
# NCI-H650 = system: NCI-H650
# Procedure, shortened: as §1
# NCI-H838 = system: NCI-H838
# Procedure, shortened: as §1
# PC-14 = system: PC-14
# Procedure, shortened: as §1
# SW 1573 = system: SW 1573
# Procedure, shortened: as §1
# UMC-11 = system: UMC-11
# Procedure, shortened: as §1
smiles,measurement,setting,value
O=c1cc(N2CCOCC2)oc2c(-c3cccc4c3sc3ccccc34)cccc12 + CS(=O)(=O)CCNCc1ccc(-c2ccc3ncnc(Nc4ccc(OCc5cccc(F)c5)c(Cl)c4)c3c2)o1 [Lapatinib] (partner 2 µM),relative viability,ABC-1; first compound 0.01 µM,1.07
same,relative viability,ABC-1; first compound 0.03162 µM,1.07
same,relative viability,ABC-1; first compound 0.1 µM,1.6
same,relative viability,ABC-1; first compound 0.3162 µM,1.04
same,relative viability,ABC-1; first compound 1 µM,1.2
same,relative viability,COR-L23; first compound 0.01 µM,1.01
same,relative viability,COR-L23; first compound 0.03162 µM,0.823
same,relative viability,COR-L23; first compound 0.1 µM,0.924
same,relative viability,COR-L23; first compound 0.3162 µM,0.843
same,relative viability,COR-L23; first compound 1 µM,1
same,relative viability,EPLC-272H; first compound 0.01 µM,1.15
same,relative viability,EPLC-272H; first compound 0.03162 µM,1.12
same,relative viability,EPLC-272H; first compound 0.3162 µM,0.928
same,relative viability,EPLC-272H; first compound 1 µM,0.825
same,relative viability,HARA; first compound 0.01 µM,0.547
same,relative viability,HARA; first compound 0.03162 µM,0.756
same,relative viability,HARA; first compound 0.1 µM,0.702
same,relative viability,HARA; first compound 0.3162 µM,0.797
same,relative viability,HARA; first compound 1 µM,0.665
same,relative viability,HCC-15; first compound 0.01 µM,0.823
same,relative viability,HCC-15; first compound 0.03162 µM,0.881
same,relative viability,HCC-15; first compound 0.1 µM,0.999
same,relative viability,HCC-15; first compound 0.3162 µM,0.871
same,relative viability,HCC-15; first compound 1 µM,0.86
same,relative viability,HCC-44; first compound 0.01 µM,1.01
same,relative viability,HCC-44; first compound 0.03162 µM,0.995
same,relative viability,HCC-44; first compound 0.1 µM,1.11
same,relative viability,HCC-44; first compound 0.3162 µM,0.946
same,relative viability,HCC-44; first compound 1 µM,1.07
same,relative viability,HOP-62; first compound 0.01 µM,0.996
same,relative viability,HOP-62; first compound 0.03162 µM,0.856
same,relative viability,HOP-62; first compound 0.1 µM,0.821
same,relative viability,HOP-62; first compound 0.3162 µM,0.958
same,relative viability,HOP-62; first compound 1 µM,1.17
same,relative viability,LC-2-ad; first compound 0.01 µM,1.06
same,relative viability,LC-2-ad; first compound 0.1 µM,1.03
same,relative viability,LC-2-ad; first compound 0.3162 µM,0.898
same,relative viability,LC-2-ad; first compound 1 µM,1.02
same,relative viability,LU99A; first compound 0.01 µM,1.11
same,relative viability,LU99A; first compound 0.03162 µM,1.04
same,relative viability,LU99A; first compound 0.1 µM,0.921
same,relative viability,LU99A; first compound 0.3162 µM,1.02
same,relative viability,LU99A; first compound 1 µM,1.07
same,relative viability,NCI-H1355; first compound 0.01 µM,0.998
same,relative viability,NCI-H1355; first compound 0.03162 µM,1
same,relative viability,NCI-H1355; first compound 0.3162 µM,1.03
same,relative viability,NCI-H1355; first compound 1 µM,0.963
same,relative viability,NCI-H1651; first compound 0.01 µM,0.746
same,relative viability,NCI-H1651; first compound 0.03162 µM,0.909
same,relative viability,NCI-H1651; first compound 0.1 µM,0.875
same,relative viability,NCI-H1651; first compound 0.3162 µM,0.741
same,relative viability,NCI-H1651; first compound 1 µM,0.878
same,relative viability,NCI-H1915; first compound 0.01 µM,1.05
same,relative viability,NCI-H1915; first compound 0.03162 µM,1.05
same,relative viability,NCI-H1915; first compound 0.1 µM,0.957
same,relative viability,NCI-H1915; first compound 0.3162 µM,0.977
same,relative viability,NCI-H1915; first compound 1 µM,1.05
same,relative viability,NCI-H1993; first compound 0.01 µM,0.823
same,relative viability,NCI-H1993; first compound 0.03162 µM,0.911
same,relative viability,NCI-H1993; first compound 0.1 µM,0.813
same,relative viability,NCI-H1993; first compound 0.3162 µM,0.764
same,relative viability,NCI-H1993; first compound 1 µM,0.829
same,relative viability,NCI-H2023; first compound 0.01 µM,0.88
same,relative viability,NCI-H2023; first compound 0.03162 µM,0.975
same,relative viability,NCI-H2023; first compound 0.1 µM,0.882
same,relative viability,NCI-H2023; first compound 0.3162 µM,0.826
same,relative viability,NCI-H2023; first compound 1 µM,0.887
same,relative viability,NCI-H2085; first compound 0.01 µM,0.796
same,relative viability,NCI-H2085; first compound 0.03162 µM,0.757
same,relative viability,NCI-H2085; first compound 0.1 µM,0.775
same,relative viability,NCI-H2085; first compound 0.3162 µM,0.734
same,relative viability,NCI-H2085; first compound 1 µM,0.751
same,relative viability,NCI-H2126; first compound 0.01 µM,0.826
same,relative viability,NCI-H2126; first compound 0.03162 µM,0.768
same,relative viability,NCI-H2126; first compound 0.1 µM,0.758
same,relative viability,NCI-H2126; first compound 0.3162 µM,0.748
same,relative viability,NCI-H2126; first compound 1 µM,0.718
same,relative viability,NCI-H2347; first compound 0.01 µM,0.953
same,relative viability,NCI-H2347; first compound 0.03162 µM,0.965
same,relative viability,NCI-H2347; first compound 0.1 µM,0.93
same,relative viability,NCI-H2347; first compound 0.3162 µM,0.942
same,relative viability,NCI-H2347; first compound 1 µM,0.973
same,relative viability,NCI-H358; first compound 0.01 µM,0.515
same,relative viability,NCI-H358; first compound 0.03162 µM,0.478
same,relative viability,NCI-H358; first compound 0.1 µM,0.482
same,relative viability,NCI-H358; first compound 0.3162 µM,0.467
same,relative viability,NCI-H358; first compound 1 µM,0.433
same,relative viability,NCI-H650; first compound 0.01 µM,0.769
same,relative viability,NCI-H650; first compound 0.03162 µM,0.973
same,relative viability,NCI-H650; first compound 0.3162 µM,1.17
same,relative viability,NCI-H650; first compound 1 µM,0.77
same,relative viability,NCI-H838; first compound 0.01 µM,1.08
same,relative viability,NCI-H838; first compound 0.03162 µM,0.915
same,relative viability,NCI-H838; first compound 0.1 µM,0.984
same,relative viability,NCI-H838; first compound 0.3162 µM,0.97
same,relative viability,NCI-H838; first compound 1 µM,0.969
same,relative viability,PC-14; first compound 0.01 µM,0.331
same,relative viability,PC-14; first compound 0.03162 µM,0.32
same,relative viability,PC-14; first compound 0.1 µM,0.272
same,relative viability,PC-14; first compound 0.3162 µM,0.308
same,relative viability,PC-14; first compound 1 µM,0.302
same,relative viability,SW 1573; first compound 0.01 µM,0.21
same,relative viability,SW 1573; first compound 0.03162 µM,1.22
same,relative viability,SW 1573; first compound 0.1 µM,1.06
same,relative viability,SW 1573; first compound 0.3162 µM,1.07
same,relative viability,SW 1573; first compound 1 µM,1.14
same,relative viability,UMC-11; first compound 0.01 µM,0.997
same,relative viability,UMC-11; first compound 0.03162 µM,1.03
same,relative viability,UMC-11; first compound 0.1 µM,1.17
same,relative viability,UMC-11; first compound 0.3162 µM,0.995
same,relative viability,UMC-11; first compound 1 µM,0.951
